Earlier results as cited in patent publication US20220401317A1, “HYPOCHLORITE COMPOSITION AND SYSTEM AND METHOD FOR PREPARING A HYPOCHLORITE COMPOSITION AND USE OF THE SAME” (KONINKLIJKE PHILIPS N.V., priority 2019, published 2022).

pKa: 7.53
Structure (SMILES): OCl [hypochloric acid]
